Experimental data published in US9447038B2 (SANOFI, priority 2012, dated 2016).
Counter-ions that a name gives are not always drawn.

Biological target: human CXCR3-A receptor (Homo sapiens (Human), UniProt P49682)
Experiment: 125I-CXCL10 competition radioligand binding assay;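 also: One-hour incubation of membranes with tracer, bound radioligand separated by glass fibre filtration, IC50 derived from four-parameter nonlinear fit of competition curves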
Details: displacement of 125I-CXCL10 from membranes of CHO cells expressing human recombinant CXCR3-A

Chain of human CXCR3-A receptor (P49682 whole entry): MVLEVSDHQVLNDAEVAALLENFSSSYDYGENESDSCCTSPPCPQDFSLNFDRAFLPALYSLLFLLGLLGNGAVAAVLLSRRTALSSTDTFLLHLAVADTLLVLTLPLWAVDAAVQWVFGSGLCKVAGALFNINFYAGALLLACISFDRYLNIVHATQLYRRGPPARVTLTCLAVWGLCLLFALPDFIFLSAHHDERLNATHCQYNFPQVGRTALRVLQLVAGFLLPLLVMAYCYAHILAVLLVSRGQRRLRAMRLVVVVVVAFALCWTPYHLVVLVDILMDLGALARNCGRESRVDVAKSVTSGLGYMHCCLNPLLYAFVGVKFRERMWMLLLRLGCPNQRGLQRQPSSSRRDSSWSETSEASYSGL

SMILES	IC50
CCN(Cc1ccc(OCCN2C(=O)CCC2=O)c(C)c1)C(c1ccc(Cl)cc1)C(C)C(=O)O (centres unmarked) [Example 175, 3-(4-Chloro-phenyl)-3-({4-[2-(2,5-dioxo-pyrrolidin-1-yl)-ethoxy]-3-methyl-benzyl}-ethyl-amino)-2-methyl-propionic acid]	266 nM
Cc1cc(CN(C)C(c2ccc(Cl)cc2)C(C)C(=O)O)ccc1OCCN1C(=O)CCC1=O (centres unmarked) [Example 176]	5520 nM
CCCCN(Cc1ccc(CCCN2C(=O)CCC2=O)c(C)c1)C(CC(=O)O)c1ccc2c(c1)CCO2 (centres unmarked) [Example 177, 3-(Butyl-{4-[3-(2,5-dioxo-pyrrolidin-1-yl)-propyl]-3-methyl-benzyl}-amino)-3-(2,3-dihydro-benzofuran-5-yl)-propionic acid]	255 nM
CCCN(Cc1ccc(OCCN2C(=O)CCC2=O)c(C)c1)C(CC(=O)O)c1ccc(C)cc1 (centres unmarked) [Example 178, 3-({4-[2-(2,5-Dioxo-pyrrolidin-1-yl)-ethoxy]-3-methyl-benzyl}-propyl-amino)-3-p-tolyl-propionic acid]	183 nM
COc1cc(CN(CC2CCCCC2)C(CC(=O)O)c2ccc(C(F)(F)F)cc2)ccc1OCCN1C(=O)CCC1=O (centres unmarked) [Example 181, 3-(Cyclohexylmethyl-{4-[2-(2,5-dioxo-pyrrolidin-1-yl)-ethoxy]-3-methoxy-benzyl}-amino)-3-(4-trifluoromethyl-phenyl)-propionic acid]	507 nM
CCN(Cc1ccc(OCCN2C(=O)CCC2=O)c(OC)c1)C(C(=O)O)c1ccc(Cl)cc1 (centres unmarked) [Example 182, (4-Chloro-phenyl)-({4-[2-(2,5-dioxo-pyrrolidin-1-yl)-ethoxy]-3-methoxy-benzyl}-ethyl-amino)-acetic acid]	3900 nM
CCCCN(Cc1ccc(OCCN2C(=O)CCC2=O)c(OC)c1)C(C(=O)O)c1ccc(Cl)cc1 (centres unmarked) [Example 184]	336 nM
COc1cc(CN(CC2CCCC2)C(CC(=O)O)c2ccc(Cl)cc2)ccc1SCCN1C(=O)CCC1=O (centres unmarked) [Example 188, 3-(4-Chloro-phenyl)-3-(cyclopentylmethyl-{4-[2-(2,5-dioxo-pyrrolidin-1-yl)-ethylsulfanyl]-3-methoxy-benzyl}-amino)-propionic acid]	31 nM
COc1cc(CN(CC2CCCC2)C(CC(=O)O)c2ccc(Cl)c(F)c2)ccc1SCCN1C(=O)CCC1=O (centres unmarked) [Example 190, 3-(4-Chloro-3-fluoro-phenyl)-3-(cyclopentylmethyl-{4-[2-(2,5-dioxo-pyrrolidin-1-yl)-ethylsulfanyl]-3-methoxy-benzyl}-amino)-propionic acid]	62 nM
COc1cc(CN(CC2CC2)C(CC(=O)O)c2ccc(Cl)c(Cl)c2)ccc1SCCN1C(=O)CCC1=O (centres unmarked) [Example 191, 3-(Cyclopropylmethyl-{4-[2-(2,5-dioxo-pyrrolidin-1-yl)-ethylsulfanyl]-3-methoxy-benzyl}-amino)-3-(3,4-dichloro-phenyl)-propionic acid]	20 nM
CCCN(Cc1ccc(SCCN2C(=O)CCC2=O)c(OC)c1)C(CC(=O)O)c1ccc(Cl)c(Cl)c1 (centres unmarked) [Example 192, 3-(3,4-Dichloro-phenyl)-3-({4-[2-(2,5-dioxo-pyrrolidin-1-yl)-ethylsulfanyl]-3-methoxy-benzyl}-propyl-amino)-propionic acid]	55 nM
COc1cc(CN(CC(C)C)C(CC(=O)O)c2ccc(Cl)c(Cl)c2)ccc1SCCN1C(=O)CCC1=O (centres unmarked) [Example 193, 3-(3,4-Dichloro-phenyl)-3-({4-[2-(2,5-dioxo-pyrrolidin-1-yl)-ethylsulfanyl]-3-methoxy-benzyl}-isobutyl-amino)-propionic acid]	72 nM
CCCN(Cc1ccc(OCCN2C(=O)CCC2=O)c(C)c1)C(c1ccc(Cl)cc1)C(C)C(=O)O (centres unmarked) [Example 194, 3-(4-Chloro-phenyl)-3-({4-[2-(2,5-dioxo-pyrrolidin-1-yl)-ethoxy]-3-methyl-benzyl}-propyl-amino)-2-methyl-propionic acid]	272 nM
CCCN(Cc1ccc(OCCN2C(=O)CCC2=O)c(F)c1)C(c1ccc(Cl)cc1)C(C)C(=O)O (centres unmarked) [Example 195, 3-(4-Chloro-phenyl)-3-({4-[2-(2,5-dioxo-pyrrolidin-1-yl)-ethoxy]-3-fluoro-benzyl}-propyl-amino)-2-methyl-propionic acid]	342 nM
CCCN(Cc1ccc(OCCN2C(=O)CCC2=O)c(CC)c1)C(c1ccc(Cl)cc1)C1(C(=O)O)CC1 (centres unmarked) [Example 196, 1-[(4-Chloro-phenyl)-({4-[2-(2,5-dioxo-pyrrolidin-1-yl)-ethoxy]-3-ethyl-benzyl}-propyl-amino)-methyl]-cyclopropanecarboxylic acid]	630 nM
Cc1cc(CN(CC2CCCC2)[C@@H](CC(=O)O)c2ccc(Cl)cc2)ccc1OCCN1C(=O)CN(C)C1=O [Example 199, (S)-3-(4-Chloro-phenyl)-3-(cyclopentylmethyl-{3-methyl-4-[2-(3-methyl-2,5-dioxo-imidazolidin-1-yl)-ethoxy]-benzyl}-amino)-propionic acid]	175 nM
Cc1cc(CN(CC2CCCC2)[C@@H](CC(=O)O)c2ccc(Cl)c(Cl)c2)ccc1OCCN1C(=O)CN(C)C1=O [Example 200, (S)-3-(Cyclopentylmethyl-{3-methyl-4-[2-(3-methyl-2,5-dioxo-imidazolidin-1-yl)-ethoxy]-benzyl}-amino)-3-(3,4-dichloro-phenyl)-propionic acid; hydrochloride]	234 nM
CN1CC(=O)N(CCOc2ccc(CN(CC3CCCC3)[C@H](CC(=O)O)c3ccc(Cl)cc3)cc2Cl)C1=O [Example 201, (R)-3-({3-Chloro-4-[2-(3-methyl-2,5-dioxo-imidazolidin-1-yl)-ethoxy]-benzyl}-cyclopentylmethyl-amino)-3-(4-chloro-phenyl)-propionic acid]	886 nM
CN1CC(=O)N(CCOc2ccc(CN(CC3CCCCC3)[C@H](CC(=O)O)c3ccc(Cl)cc3)cc2Cl)C1=O [Example 202, (R)-3-({3-Chloro-4-[2-(3-methyl-2,5-dioxo-imidazolidin-1-yl)-ethoxy]-benzyl}-cyclohexylmethyl-amino)-3-(4-chloro-phenyl)-propionic acid]	810 nM
CCCN(Cc1ccc(OCCN2C(=O)CCC2=O)c(OC)c1)C(CC(=O)O)c1cc(C)sc1C (centres unmarked) [Example 204, 3-(2,5-Dimethyl-thiophen-3-yl)-3-({4-[2-(2,5-dioxo-pyrrolidin-1-yl)-ethoxy]-3-methoxy-benzyl}-propyl-amino)-propionic acid; hydrochloride]	197 nM

Results, then the molecule that gave them:

IC50	SMILES
237 nM	CCCCN(Cc1ccc(OCCN2C(=O)CCC2=O)c(OC)c1)C1c2ccc(Cl)cc2CC1C(=O)O (centres unmarked) [Example 168, 1-(Butyl-{4-[2-(2,5-dioxo-pyrrolidin-1-yl)-ethoxy]-3-methoxy-benzyl}-amino)-5-chloro-indan-2-carboxylic acid]
407 nM	COc1cc(CN(CC2CCCCC2)C2c3ccc(Cl)cc3CC2C(=O)O)ccc1OCCN1C(=O)CCC1=O (centres unmarked) [Example 169, 5-Chloro-1-(cyclohexylmethyl-{4-[2-(2,5-dioxo-pyrrolidin-1-yl)-ethoxy]-3-methoxy-benzyl}-amino)-indan-2-carboxylic acid]
345 nM	COc1cc(CN(CC(C)C)C2c3ccc(Cl)cc3CC2C(=O)O)ccc1OCCN1C(=O)CCC1=O (centres unmarked) [Example 170, 5-Chloro-1-({4-[2-(2,5-dioxo-pyrrolidin-1-yl)-ethoxy]-3-methoxy-benzyl}-isobutyl-amino)-indan-2-carboxylic acid]
389 nM	COc1cc(CN(CC2CCCC2)C2c3ccc(Cl)cc3CC2C(=O)O)ccc1OCCN1C(=O)CCC1=O (centres unmarked) [Example 171, 5-Chloro-1-(cyclopentylmethyl-{4-[2-(2,5-dioxo-pyrrolidin-1-yl)-ethoxy]-3-methoxy-benzyl}-amino)-indan-2-carboxylic acid]
603 nM	CCCCN(Cc1ccc(OCCN2C(=O)CCC2=O)c(C)c1)C1c2ccc(Cl)cc2CC1C(=O)O (centres unmarked) [Example 173, 1-(Butyl-{4-[2-(2,5-dioxo-pyrrolidin-1-yl)-ethoxy]-3-methyl-benzyl}-amino)-5-chloro-indan-2-carboxylic acid]
800 nM	Cc1cc(CN(CC(C)C)C2c3ccc(Cl)cc3CC2C(=O)O)ccc1OCCN1C(=O)CCC1=O (centres unmarked) [Example 174, 5-Chloro-1-({4-[2-(2,5-dioxo-pyrrolidin-1-yl)-ethoxy]-3-methyl-benzyl}-isobutyl-amino)-indan-2-carboxylic acid]
91 nM	COc1cc(CN(CC2CCCC2)C(CC(=O)O)c2ccc(C)cc2)ccc1OCCN1C(=O)CCC1=O (centres unmarked) [Example 179, 3-(Cyclopentylmethyl-{4-[2-(2,5-dioxo-pyrrolidin-1-yl)-ethoxy]-3-methoxy-benzyl}-amino)-3-p-tolyl-propionic acid]
198 nM	COc1cc(CN(CC2CCCC2)C(CC(=O)O)c2ccc(C(F)(F)F)cc2)ccc1OCCN1C(=O)CCC1=O (centres unmarked) [Example 180, 3-(Cyclopentylmethyl-{4-[2-(2,5-dioxo-pyrrolidin-1-yl)-ethoxy]-3-methoxy-benzyl}-amino)-3-(4-trifluoromethyl-phenyl)-propionic acid]
71 nM	COc1cc(CN(CC2CC2)C(c2ccc(Cl)cc2)C(C)C(=O)O)ccc1OCCN1C(=O)CCC1=O (centres unmarked) [Example 187, 3-(4-Chloro-phenyl)-3-(cyclopropylmethyl-{4-[2-(2,5-dioxo-pyrrolidin-1-yl)-ethoxy]-3-methoxy-benzyl}-amino)-2-methyl-propionic acid]
